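All cell lines were grown in 96-well plates and treated with compound for 48 hours. Here, GI50 denotes the concentration required for 50% inhibition of growth.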 Active and inactive are the calls of the source. Rule as the data show it: active = GI50 up to about 1.1 µM and inactive = higher.
How the values were obtained:
Assay in all cases: DTP human tumour cell line panel, 48 h
COLO 205 = system: COLO 205
DMS-114 = system: DMS-114
DMS-273 = system: DMS-273
HOP-18 = system: HOP-18
HOP-62 = system: HOP-62
KM-20L2 = system: KM-20L2
KM12 = system: KM12
MCF7 = system: MCF7
NCI-H522 = system: NCI-H522
SF-295 = system: SF-295
SNB-78 = system: SNB-78
ACHN = system: ACHN
DU-145 = system: DU-145
M14 = system: M14
MDA-MB-435 = system: MDA-MB-435
MDA-N = system: MDA-N
PC-3 = system: PC-3
SR = system: SR
T47D = system: T47D
TK-10 = system: TK-10

O=C1NC(c2cccc3ccccc23)Nc2ccc(O)cc21 (stereo not drawn)
GI50 (COLO 205): 34.1 µM (inactive) | GI50 (DMS-114): 7.35 µM (inactive) | GI50 (DMS-273): 10.4 µM (inactive) | GI50 (HOP-18): 43.3 µM (inactive) | GI50 (HOP-62): 31.8 µM (inactive) | GI50 (KM-20L2): 40.3 µM (inactive) | GI50 (KM12): 23.4 µM (inactive) | GI50 (MCF7): 16.1 µM (inactive) | GI50 (NCI-H522): 22.3 µM (inactive) | GI50 (SF-295): 27.5 µM (inactive) | GI50 (SNB-78): 40.3 µM (inactive)

CC1CCC(O)/C=C/C(=O)OC(C)C(O)/C=C/C(=O)O1 (stereo not drawn)
GI50 (ACHN): > 68.4 µM (inactive) | GI50 (COLO 205): 64 µM (inactive) | GI50 (DU-145): > 100 µM (inactive) | GI50 (HOP-62): > 100 µM (inactive) | GI50 (KM12): > 100 µM (inactive) | GI50 (M14): > 56.1 µM (inactive) | GI50 (MCF7): > 92.9 µM (inactive) | GI50 (MDA-MB-435): > 100 µM (inactive) | GI50 (MDA-N): > 95.9 µM (inactive) | GI50 (NCI-H522): 35.6 µM (inactive) | GI50 (PC-3): > 100 µM (inactive) | GI50 (SF-295): > 100 µM (inactive) | GI50 (SR): 51.5 µM (inactive) | GI50 (T47D): > 100 µM (inactive) | GI50 (TK-10): > 83.8 µM (inactive)

OCCOCn1nc(-c2ccccc2)nc1-c1cnccn1
GI50 (COLO 205): > 100 µM (inactive) | GI50 (DU-145): > 100 µM (inactive) | GI50 (HOP-62): > 100 µM (inactive) | GI50 (KM12): > 100 µM (inactive) | GI50 (M14): > 100 µM (inactive) | GI50 (MCF7): > 100 µM (inactive) | GI50 (MDA-N): > 100 µM (inactive) | GI50 (NCI-H522): > 100 µM (inactive) | GI50 (PC-3): > 100 µM (inactive) | GI50 (SF-295): > 100 µM (inactive) | GI50 (SR): > 100 µM (inactive) | GI50 (T47D): > 100 µM (inactive) | GI50 (TK-10): > 100 µM (inactive)

CCCCC(NC(=O)CC)C(=O)O (stereo not drawn)
GI50 (COLO 205): > 100 µM (inactive) | GI50 (DMS-114): > 100 µM (inactive) | GI50 (DMS-273): > 100 µM (inactive) | GI50 (HOP-18): > 100 µM (inactive) | GI50 (HOP-62): > 100 µM (inactive) | GI50 (KM-20L2): > 100 µM (inactive) | GI50 (KM12): > 100 µM (inactive) | GI50 (MCF7): > 100 µM (inactive) | GI50 (NCI-H522): > 100 µM (inactive) | GI50 (SF-295): > 100 µM (inactive) | GI50 (SNB-78): > 100 µM (inactive)

Cn1ccc(C(=O)NCCN(CCNC(=O)c2ccn(C)c(=O)c2O)CCNC(=O)c2ccn(C)c(=O)c2O)c(O)c1=O
GI50 (ACHN): 74.6 µM (inactive) | GI50 (COLO 205): > 100 µM (inactive) | GI50 (DU-145): > 100 µM (inactive) | GI50 (HOP-62): > 100 µM (inactive) | GI50 (KM12): > 100 µM (inactive) | GI50 (M14): > 100 µM (inactive) | GI50 (MCF7): > 100 µM (inactive) | GI50 (MDA-MB-435): > 100 µM (inactive) | GI50 (MDA-N): > 100 µM (inactive) | GI50 (NCI-H522): > 100 µM (inactive) | GI50 (PC-3): > 100 µM (inactive) | GI50 (SF-295): > 100 µM (inactive) | GI50 (SR): > 100 µM (inactive) | GI50 (T47D): > 100 µM (inactive) | GI50 (TK-10): > 100 µM (inactive)

C#CCn1c(=O)c(C#N)c(O)c2cc3ccccc3nc21
GI50 (COLO 205): > 100 µM (inactive) | GI50 (DMS-114): > 100 µM (inactive) | GI50 (DMS-273): > 100 µM (inactive) | GI50 (HOP-18): > 100 µM (inactive) | GI50 (HOP-62): > 100 µM (inactive) | GI50 (KM12): > 100 µM (inactive) | GI50 (MCF7): > 100 µM (inactive) | GI50 (NCI-H522): > 100 µM (inactive) | GI50 (SF-295): > 100 µM (inactive) | GI50 (SNB-78): > 100 µM (inactive)

O=C(NC1C(O)C(O)C(CO)OC1n1cc(F)c(=O)[nH]c1=O)OCc1ccccc1 (stereo not drawn)
GI50 (ACHN): > 100 µM (inactive) | GI50 (COLO 205): > 100 µM (inactive) | GI50 (DMS-114): > 100 µM (inactive) | GI50 (DMS-273): > 100 µM (inactive) | GI50 (HOP-18): > 100 µM (inactive) | GI50 (HOP-62): > 100 µM (inactive) | GI50 (KM-20L2): > 100 µM (inactive) | GI50 (KM12): > 100 µM (inactive) | GI50 (M14): > 100 µM (inactive) | GI50 (NCI-H522): > 100 µM (inactive) | GI50 (SF-295): > 100 µM (inactive) | GI50 (SNB-78): > 100 µM (inactive) | GI50 (SR): > 100 µM (inactive) | GI50 (TK-10): > 100 µM (inactive)

NCCCCN(CCCN)Cc1ccccc1
GI50 (ACHN): > 100 µM (inactive) | GI50 (COLO 205): > 100 µM (inactive) | GI50 (DU-145): > 100 µM (inactive) | GI50 (HOP-62): > 100 µM (inactive) | GI50 (KM12): > 100 µM (inactive) | GI50 (M14): > 100 µM (inactive) | GI50 (MCF7): > 100 µM (inactive) | GI50 (MDA-MB-435): > 100 µM (inactive) | GI50 (NCI-H522): > 100 µM (inactive) | GI50 (PC-3): > 100 µM (inactive) | GI50 (SF-295): > 100 µM (inactive) | GI50 (T47D): > 100 µM (inactive) | GI50 (TK-10): > 100 µM (inactive)

CCN1CCC(O)(/C=C/c2ccccc2C)C(C(=O)/C=C/c2ccccc2C)C1 (stereo not drawn)
GI50 (COLO 205): 1.64 µM (inactive) | GI50 (DU-145): 1.79 µM (inactive) | GI50 (HOP-62): 1.94 µM (inactive) | GI50 (M14): 2.04 µM (inactive) | GI50 (MCF7): 3.15 µM (inactive) | GI50 (MDA-MB-435): 2.38 µM (inactive) | GI50 (MDA-N): 2.67 µM (inactive) | GI50 (PC-3): 1.93 µM (inactive) | GI50 (SF-295): 2.34 µM (inactive) | GI50 (SR): 2.72 µM (inactive) | GI50 (T47D): 1.85 µM (inactive) | GI50 (TK-10): 2.94 µM (inactive)

CCN(CC)CCN(C(=O)c1ccc(F)cc1)c1ccccc1N
GI50 (ACHN): > 10 µM (inactive) | GI50 (COLO 205): > 10 µM (inactive) | GI50 (DU-145): > 10 µM (inactive) | GI50 (HOP-62): > 10 µM (inactive) | GI50 (KM12): > 10 µM (inactive) | GI50 (M14): > 10 µM (inactive) | GI50 (MCF7): > 10 µM (inactive) | GI50 (MDA-MB-435): > 10 µM (inactive) | GI50 (MDA-N): > 10 µM (inactive) | GI50 (NCI-H522): > 10 µM (inactive) | GI50 (PC-3): > 10 µM (inactive) | GI50 (SF-295): > 10 µM (inactive) | GI50 (SR): > 10 µM (inactive) | GI50 (T47D): > 10 µM (inactive) | GI50 (TK-10): > 10 µM (inactive)

Nc1ccc(C2(c3ccc(N)cc3)C3CC4CC(C3)CC2C4)cc1
GI50 (ACHN): 18.7 µM (inactive) | GI50 (HOP-62): 13.6 µM (inactive) | GI50 (KM12): 0.0975 µM (active) | GI50 (M14): 14.9 µM (inactive) | GI50 (MCF7): 19.5 µM (inactive) | GI50 (MDA-MB-435): 14.7 µM (inactive) | GI50 (MDA-N): 18.6 µM (inactive) | GI50 (NCI-H522): 15.6 µM (inactive) | GI50 (PC-3): 14.9 µM (inactive) | GI50 (SF-295): 0.0592 µM (active) | GI50 (SR): 14.5 µM (inactive) | GI50 (T47D): 14.5 µM (inactive) | GI50 (TK-10): 18 µM (inactive)

CCN(CC)Cc1ccc2cccnc2c1O
GI50 (ACHN): 2.33 µM (inactive) | GI50 (COLO 205): 15.7 µM (inactive) | GI50 (DU-145): 10.8 µM (inactive) | GI50 (HOP-62): 4.5 µM (inactive) | GI50 (MCF7): 3.27 µM (inactive) | GI50 (MDA-MB-435): 9.42 µM (inactive) | GI50 (MDA-N): 10.6 µM (inactive) | GI50 (NCI-H522): 0.37 µM (active) | GI50 (PC-3): 6.05 µM (inactive) | GI50 (SF-295): 3.48 µM (inactive) | GI50 (SR): 0.995 µM (active) | GI50 (TK-10): 9.64 µM (inactive)

O=C(NC1C2CC3CC(C2)CC1C3)c1cc(/C=C/c2ccccc2)nc(S)n1 (stereo not drawn)
GI50 (ACHN): > 100 µM (inactive) | GI50 (COLO 205): > 100 µM (inactive) | GI50 (DMS-114): > 100 µM (inactive) | GI50 (DMS-273): > 100 µM (inactive) | GI50 (HOP-62): > 100 µM (inactive) | GI50 (KM-20L2): > 100 µM (inactive) | GI50 (KM12): > 100 µM (inactive) | GI50 (M14): > 100 µM (inactive) | GI50 (NCI-H522): > 100 µM (inactive) | GI50 (SF-295): > 100 µM (inactive) | GI50 (SNB-78): > 100 µM (inactive) | GI50 (SR): > 100 µM (inactive) | GI50 (TK-10): > 100 µM (inactive)

CCCCC1=C(Br)C(=C(Br)Br)OC1=O
GI50 (COLO 205): 3.01 µM (inactive) | GI50 (DMS-114): 2.07 µM (inactive) | GI50 (DMS-273): 2.74 µM (inactive) | GI50 (HOP-18): 3.94 µM (inactive) | GI50 (HOP-62): 7.96 µM (inactive) | GI50 (KM-20L2): 8.65 µM (inactive) | GI50 (KM12): 3.29 µM (inactive) | GI50 (MCF7): 3.54 µM (inactive) | GI50 (NCI-H522): 1.86 µM (inactive) | GI50 (SF-295): 10.6 µM (inactive) | GI50 (SNB-78): 6.01 µM (inactive)

COC(=O)C1OC(Oc2cc(O)c3c(=O)cc(-c4ccc(O)cc4)oc3c2)C(O)C(O)C1O (stereo not drawn)
GI50 (COLO 205): > 100 µM (inactive) | GI50 (DMS-114): > 100 µM (inactive) | GI50 (DMS-273): > 100 µM (inactive) | GI50 (HOP-18): > 100 µM (inactive) | GI50 (HOP-62): > 100 µM (inactive) | GI50 (KM-20L2): > 100 µM (inactive) | GI50 (KM12): > 100 µM (inactive) | GI50 (MCF7): > 100 µM (inactive) | GI50 (NCI-H522): > 100 µM (inactive) | GI50 (SF-295): > 100 µM (inactive) | GI50 (SNB-78): > 100 µM (inactive)

c1ccc2c(c1)SC1Sc3ccccc3[S+]21 (stereo not drawn)
GI50 (ACHN): 14.1 µM (inactive) | GI50 (COLO 205): 11.1 µM (inactive) | GI50 (DU-145): 21.6 µM (inactive) | GI50 (HOP-62): 31.6 µM (inactive) | GI50 (KM12): 16.4 µM (inactive) | GI50 (M14): 21.5 µM (inactive) | GI50 (MCF7): 25.1 µM (inactive) | GI50 (MDA-MB-435): 18.8 µM (inactive) | GI50 (MDA-N): 22.4 µM (inactive) | GI50 (NCI-H522): 6.53 µM (inactive) | GI50 (PC-3): 28.3 µM (inactive) | GI50 (SF-295): 53.2 µM (inactive) | GI50 (T47D): 12.5 µM (inactive) | GI50 (TK-10): 18.4 µM (inactive)

Reference: ChEMBL document CHEMBL1201862, “PubChem BioAssay data set” (2004)
